Here are results for eight compounds from ChEMBL document CHEMBL5236628 (J Med Chem, 2022).

In brackets after ≈: the same amount, converted by molar mass. Activity calls are given as the source filed them. No cut-off for these calls is given here.

Series [1] concerns Plasmodium falciparum. Description: Antiplasmodial activity against multidrug resistant Plasmodium falciparum K1 infected in human erythrocytes incubated for 48 hrs followed by addition of [3H]-hypoxanthine and measured after 24 hrs by beta-plate liquid scintillation counting method. Type of series: functional, organism-based.
A short description of series [2]: Drug accumulation in mitochondria of human erythrocytes infected with chloroquine sensitive Plasmodium falciparum NF54 by live cell imaging analysis. As to conditions: erythrocyte. The series is classed as ADME.
Series [3] in a line: Drug accumulation in endoplasmic reticulum of human erythrocytes infected with chloroquine sensitive Plasmodium falciparum NF54 by live cell imaging analysis. The series is classed as ADME, subcellular. As to conditions: erythrocyte.
A short description of series [4]: Drug accumulation in lysosomes of human erythrocytes infected with chloroquine sensitive Plasmodium falciparum NF54 by live cell imaging analysis. The series is classed as ADME, cell-based. As to conditions: erythrocyte.
Series [5] in a line: Drug accumulation in hemozoin crystal of human erythrocytes infected with chloroquine sensitive Plasmodium falciparum NF54 by live cell imaging analysis. Type of series: ADME, cell-based. Conditions: erythrocyte.
A short description of a further series: physchem. Conditions: buffer, pH 7.4.
A short description of series [6]: Drug accumulation in neutral lipid droplets of human erythrocytes infected with chloroquine sensitive Plasmodium falciparum NF54 by live cell imaging analysis. As to conditions: erythrocyte. Type of series: ADME, cell-based.
Series [7] deals with Plasmodium falciparum. Briefly: Antiplasmodial activity against chloroquine sensitive Plasmodium falciparum NF54 infected in human erythrocytes incubated for 48 hrs followed by addition of [3H]-hypoxanthine and measured after 24 hrs by beta-plate liquid scintillation counting method. The series is classed as functional, organism-based.
Series [8] in a line: Drug accumulation in nucleus of human erythrocytes infected with chloroquine sensitive Plasmodium falciparum NF54 by live cell imaging analysis. Type of series: ADME, subcellular. As to conditions: erythrocyte.
The test system of series [9] is Plasmodium falciparum. Description: Antiplasmodial activity against early stage (I to III) Plasmodium falciparum incubated for 48 hrs by bioluminescence assay. The series is classed as functional, organism-based.
Series [10] deals with Plasmodium falciparum. Description: microbe, parasite or virus in culture. As to conditions: NF54, 72 h.
A further series concerns HepG2. Briefly: Cytotoxicity against human HepG2 cells after 48 hrs by CellTiter Glo assay. Type of series: toxicity, cell-based. As to conditions: hepg2, 48 h. Background: ATP-based viability assays read luminescence as a measure of living cells.
The subject of series [11] is Plasmodium falciparum. Briefly: Antiplasmodial activity against multidrug resistant Plasmodium falciparum K1 incubated for 72 hrs by microplate reader assay. As to conditions: K1, 72 h. Type of series: functional, organism-based.
Series [12] can be described thus: Cytotoxicity against CHO cells measured after 48 hrs by MTT assay. Conditions: Chinese hamster.
Series [13] concerns Plasmodium berghei. Briefly: Antiplasmodial activity against Plasmodium berghei ANKA infected in mouse assessed as mean survival days at 50 mg/kg, po administered for 4 days and measured upto 30 days. The series is classed as functional. As to conditions: time 4 day.
For series [14], the system named is Plasmodium berghei. Description: Antiplasmodial activity against liver stage Plasmodium berghei ANKA sporozoites expressing GFP infected in HepG2 cells pre-infected with cells for 1 hr prior to compound addition and measured after 48 hrs by flow cytometry analysis.
Series [15] relates to Plasmodium berghei. Description: Antiplasmodial activity against Plasmodium berghei ANKA infected in mouse assessed as reduction in parasitemia at 50 mg/kg, po administered for 4 days. Conditions: time 4 day. Details: scale not given: the % may be the effect or the level left. The series is classed as functional.
The subject of series [16] is Plasmodium falciparum. Briefly: Antiplasmodial activity against Plasmodium falciparum assessed as reduction in parasite viability incubated for 72 hrs by LDH assay. The series is classed as functional, organism-based.
Series [17] is described as follows: AUC(0 to infinity) in mouse at 3 mg/kg, iv. Type of series: ADME, organism-based. Further details: dose 3 mg/kg, route iv. Conditions: in vivo.
Series [18] in a line: Apparent half life in mouse at 10 mg/kg, po. Type of series: ADME, organism-based. Conditions: in vivo, read-out: t1/2(app) (converted).
A short description of series [19]: Cmax in mouse at 10 mg/kg, po. The series is classed as ADME, organism-based. Further details: dose 10 mg/kg, route po. Conditions: in vivo.
Series [20] in a line: Tmax in mouse at 10 mg/kg, po. Type of series: ADME, organism-based. Conditions: in vivo.
A short description of series [21]: Intrinsic clearance in mouse at 3 mg/kg, iv. Type of series: ADME, organism-based. Conditions: in vivo.
Series [22] can be described thus: Oral bioavailability in mouse at 10 mg/kg. As to conditions: in vivo. Type of series: ADME, organism-based.
Series [23] can be described thus: Oral bioavailability in mouse at 50 mg/kg. Conditions: in vivo. Type of series: ADME, organism-based.
Series [24] in a line: AUC(0 to infinity) in mouse at 50 mg/kg, po. The series is classed as ADME, organism-based. Details: dose 50 mg/kg, route po. As to conditions: in vivo.
Series [25] in a line: Apparent half life in mouse at 50 mg/kg, po. As to conditions: in vivo, read-out: t1/2(app) (converted). The series is classed as ADME, organism-based.
A further series has as its system Hemozoin. Description: Inhibition of Beta-hematin in Plasmodium falciparum NF54 assessed as hemozoin formation after 36 hrs by flow cytometry analysis. (In general: In flow cytometry, cells or beads pass a laser one at a time.)
A short description of series [26]: Apparent half life in mouse at 3 mg/kg, iv. Type of series: ADME, organism-based. Conditions: in vivo, read-out: t1/2(app) (converted).
Series [27] can be described thus: Tmax in mouse at 50 mg/kg, po. Type of series: ADME, organism-based. Conditions: in vivo.
Series [28] in a line: AUC(0 to infinity) in mouse at 10 mg/kg, po. Details: dose 10 mg/kg, route po. As to conditions: in vivo. The series is classed as ADME, organism-based.
A short description of series [29]: Volume of distribution in mouse at 3 mg/kg, iv. Type of series: ADME, organism-based. Conditions: in vivo.
A short description of series [30]: Cmax in mouse at 50 mg/kg, po. The series is classed as ADME, organism-based. Further details: dose 50 mg/kg, route po. Conditions: in vivo.
Series [31] can be described thus: Selectivity index, ratio of IC50 for Plasmodium falciparum NF54 to IC50 for CHO cells. Conditions: hamster.

The term IC50 denotes the concentration that gives 50% inhibition. Usually solubility (kinetic) stands for solubility judged after dilution from a stock solution rather than from solid. In general, Cmax refers to the highest concentration seen after dosing. The term Tmax denotes the time from dosing to the highest level. For orientation: bioavailability means the share of a dose that reaches the circulation, judged against a reference dose that is usually intravenous. What is called Vd is the apparent volume that relates the amount in the body to the concentration in plasma or blood.

Consider `O=[N+]([O-])c1ccc(NCCn2c(NC3CCN(CCc4ccc(-c5nc(C(F)(F)F)no5)cc4)CC3)nc3ccccc32)c2nonc12`, for which the IC50 in the series with Plasmodium falciparum [1] is 370 nM; with Plasmodium falciparum [7] it was 140 nM. Further, the Drug uptake entry is “Active” in series [2]; “Active” in [3]; “Active” in [4]; “Active” in series [5]; “Active” in [6]; “Not Active” in series [8]. In addition, the kinetic solubility at 2 h in “physchem” stood at 120 µM (≈ 79.5 µg/mL).

As for `Cn1c(NC2CCN(CCc3ccc(-c4nc(C(C)(C)C)no4)cc3)CC2)nc2ccccc21`, the IC50 in the series on Plasmodium falciparum [9] came to 1180 nM; with Plasmodium falciparum [10], 64 nM; in the series with Plasmodium falciparum [11], 300 nM. The Activity result with HepG2 is recorded as “Non-Toxic”. The compound further displayed an IC50 at 48 h in series [12] (cho) of 4690 nM.

For the compound `CN(C)c1ccc2nc3ccc(N(C)C)cc3[s+]c2c1` [METHYLENE BLUE ANHYDROUS], the IC50 in the series with Plasmodium falciparum [9] was 200 nM.

`Cn1c(NC2CCN(CCc3ccc(-c4nc(C(F)(F)F)no4)cc3)CC2)nc2ccccc21`: the concentration for half-maximal inhibition (IC50) was found to be 1670 nM in the series with Plasmodium falciparum [9], 66 nM in the series with Plasmodium falciparum [10], 210 nM in the series with Plasmodium berghei [14] and 48 nM in the series with Plasmodium falciparum [11]. Moreover, in the series on Plasmodium berghei [13], the MSD was 9 days. The Activity result is reported as “Non-Toxic” in the series with HepG2 and 90% with Plasmodium berghei [15]. In addition, the concentration for half-maximal inhibition (IC50) at 48 h in series [12] (cho) is 3180 nM.

Consider `NCCn1c(NC2CCN(CCc3ccc(-c4nc(C(F)(F)F)no4)cc3)CC2)nc2ccccc21`, for which the IC50 came to 36 nM in the series on Plasmodium falciparum [1] and 90 nM with Plasmodium falciparum [7]. Further, the solubility (kinetic) at 2 h in “physchem” is over 200 µM.

Take `COc1ccc(CCN2CCC(Nc3nc4cc(Cl)c(Cl)cc4[nH]3)CC2)cc1`: the IC50 in the series on Plasmodium falciparum [16] stood at 83 nM.

For `FC(F)(F)c1noc(-c2ccc(CCN3CCC(Nc4nc5ccccc5[nH]4)CC3)cc2)n1`, the AUC in [17] was found to be 93.4 µM/min; in [24] it was 1429 µM/min; in series [28] it was 48 µM/min. Further, the results for the half-life in series [18], in series [25] and in [26] were 1.1 h, 10.2 h and 4.2 h, respectively. Besides, the Cmax in series [19] amounted to 300 nM; in series [30], 1500 nM. Also, the Tmax was 0.7 h in [20] and 1.7 h in series [27]. In addition, the CL in series [21] was 71.7 mL/min/kg. Also, the MSD in the series on Plasmodium berghei [13] is 14 days. In addition, the bioavailability in series [22] stood at 15.6%; in series [23] it was 93.3%. Moreover, the Activity result in the series on HepG2 is “Non-Toxic”. In addition, the inhibition entry with Hemozoin was “inactive”. Further, the Vd in series [29] is 26.6 L/kg. Also, the midpoint of inhibition in [12] (cho), the IC50 at 48 h, lay at 1960 nM.

Consider `Cc1noc(-c2ccc(CCN3CCC(Nc4nc5ccccc5[nH]4)CC3)cc2)n1`, for which the AUC is 550 µM/min in series [17], 5548 µM/min in [24] and 535 µM/min in [28]. Also, the IC50 with Plasmodium falciparum [10] was 55 nM; in the series with Plasmodium falciparum [11], 176 nM. Besides, the half-life is 10.3 h in [18], 9.2 h in series [25] and 11.6 h in series [26]. Further, the figures for the Cmax in [19] and in series [30] were 1000 nM and 5900 nM, respectively. The time to peak (Tmax) was 1.5 h in series [20] and 3 h in [27]. In [21], this compound returned a CL of 16.6 mL/min/kg. For the same compound, the bioavailability in [22] stood at 29.3%; in series [23], 61%. Besides, the kinetic solubility at 2 h in the series “physchem” worked out at 80 µM (≈ 32.2 µg/mL). Moreover, the Activity with Plasmodium berghei [15] stood at 40%. In series [29], this compound yielded a Vd of 13.6 L/kg. In series [31], the selectivity ratio was found to be 64.7. This compound had a concentration for half-maximal inhibition (IC50) at 48 h in series [12] (CHO cells) of 3560 nM.
